The results in this text go back to ChEMBL document CHEMBL3600354, “Nitric oxide inhibitory activity and antioxidant evaluations of 2-benzoyl-6-benzylidenecyclohexanone analogs, a novel series of curcuminoid and diarylpentanoid derivatives” (Bioorg Med Chem Lett, 2015).

Series [1] has as its system RAW264.7. In words: Inhibition of nitric oxide production in LPS/IFNgamma-stimulated mouse RAW264.7 cells at 50 uM incubated for 17 hrs by Griess assay. The series is classed as functional. To be noted: RAW264.7, 17 h. For orientation: Nitrite, measured by Griess reagent, commonly stands in for NO production.
The subject of series [2] is RAW264.7. In words: Inhibition of nitric oxide production in LPS/IFNgamma-stimulated mouse RAW264.7 cells incubated for 17 hrs by Griess assay. The class given is functional, cell-based. To be noted: RAW264.7, 17 h.
Series [3] has as its system RAW264.7. In words: Cytotoxicity against LPS/IFNgamma-stimulated mouse RAW264.7 cells by MTT assay. The series is classed as cell-based. A general note: Formazan colour is commonly taken as a measure of viable cells.
Series [4] in a line: Antioxidant activity assessed as nitric oxide radical scavenging activity at 500 uM incubated for 60 mins with light exposure at room temperature by Griess assay. To be noted: 1 h. The class given is physicochemical.
Series [5] can be described thus: Antioxidant activity assessed as DPPH radical scavenging activity at 200 uM incubated for 30 mins under dark conditions. The class given is physicochemical. To be noted: 0.5 h.
Series [6] is described as follows: Antioxidant activity incubated at 50 degC for 20 mins by FRAP assay. The class given is physicochemical.
Series [7] can be described thus: Solubility in phosphate buffer at pH 7.4 stirred for 24 hrs at room temperature by HPLC method. The class given is physicochemical.
Series [8] can be described thus: Chemical stability in phosphate buffer at pH 7.4 at 20 uM measured over 30 mins at 5 mins intervals at 25 degC by ultraviolet absorption spectroscopy. The series is classed as physicochemical. To be noted: pH 7.4, 0.5 h.
The nature of series [9]: Stability in human liver microsomes assessed as compound remaining at 1 mM pre-incubated at 37 degC for 5 mins followed by NAPDH addition and further incubated at 37 degC for 120 mins by HPLC method. The series is classed as ADME. To be noted: read-out: Stability.
The test system of series [10] is Liver microsome. In words: Stability in human liver microsomes assessed as compound degradation at 1 mM pre-incubated at 37 degC for 5 mins followed by NAPDH addition and further incubated at 37 degC for 15 to 120 mins by HPLC method. The class given is ADME. The following applies: 1000 µM. A general note: Microsomes from liver hold many membrane-bound enzymes, among them those of drug oxidation.

Series [11] is described as follows: Antioxidant activity assessed as DPPH radical scavenging activity incubated for 30 mins under dark conditions. The series is classed as physicochemical.

By inhibition is commonly meant the relative decrease from the control value, in per cent. High values mean a response far below the control, low ones a response near the control. One may read the IC50 as the concentration at which inhibition is half-maximal. Broadly, the solubility is the concentration that dissolves in the medium under given conditions.

Molecules are shown by their SMILES. Values after ≈ are worked out from the molar mass of the structure shown.

As to `COc1cccc(/C=C2\CCCC(C(=O)c3ccccc3)=C2O)c1`, testing at 50 µM in series [1] gave an inhibition of 71.6%. Besides, the IC50 in series [2] was 32.1 µM; in [3] it was over 100 µM. The “inhibition (INH)” value in series [4] turned out to be 28.3%; in [5], 21.8%. This molecule also had an Activity in series [6] of 0.018 mmolequiv/L.

Consider `O=C(C1=C(O)/C(=C/c2ccc(O)c(O)c2)CCC1)c1ccccc1`, for which, in series [7], the concentration in solution (solubility at 24 h) was 3.3 µM (≈ 1.06 µg/mL). Besides, the results for the Stability result in series [8] and in series [10] were “Stable” and “Unstable”, respectively. Besides, the remaining at 2 h, 1000 µM in [9] was over 60%.

In [1], `O=C(C1=C(O)/C(=C/c2cccc3ccccc23)CCC1)c1ccccc1` had an inhibition at 50 µM of 15%. The “inhibition (INH)” value in series [4] is given as 14.8%; in [5] it was 17.8%. This molecule yielded an Activity in [6] of 0.015 mmolequiv/L.

`O=C(C1=C(O)/C(=C/c2ccc3ccccc3c2)CCC1)c1ccccc1` registered an inhibition at 50 µM in [1] of 9.3%. The “inhibition (INH)” value is recorded as 21% in [4] and 11.7% in [5]. In addition, the Activity in series [6] stood at 0.073 mmolequiv/L.

For the molecule `O=C(C1=C(O)/C(=C/c2cccs2)CCC1)c1ccccc1`, in [1], the inhibition at 50 µM was determined as 8.2%. Besides, the results for the “inhibition (INH)” value in series [4] and in series [5] were 3.3% and 21.8%, respectively. The molecule also registered an Activity in series [6] of 0.177 mmolequiv/L.

In [1], `Cc1ccc(/C=C2\CCCC(C(=O)c3ccccc3)=C2O)s1` returned an inhibition at 50 µM of 7.6%. The figures for the “inhibition (INH)” value in series [4] and in series [5] were 1.6% and 18.4%, respectively. Also, in series [6], the Activity is 0.14 mmolequiv/L.

As to `O=C1O[C@H]([C@@H](O)CO)C(O)=C1O` [ASCORBIC ACID], the “inhibition (INH)” value in series [4] worked out at 2.6%.

With `Cc1cc(C(C)(C)C)c(O)c(C(C)(C)C)c1` [BUTYLATED HYDROXYTOLUENE], in series [4], the “inhibition (INH)” value was 6.5%. The Activity in series [6] is 0.798 mmolequiv/L.

In series [1], `COc1cc(/C=C/C(=O)CC(=O)/C=C/c2ccc(O)c(OC)c2)ccc1O` [CURCUMIN] had an inhibition at 50 µM of 99.3%. The IC50 in series [2] was 14.7 µM; in series [3], 28.8 µM; in [11], 23.6 µM. Besides, the “inhibition (INH)” value in series [4] was determined as 88.3%; in [5] it was 84.2%. For the same molecule, the Activity in series [6] turned out to be 0.803 mmolequiv/L. Moreover, the concentration in solution in [7] (solubility at 24 h) was 1.1 µM (≈ 0.405 µg/mL). In addition, the Stability result in series [8] and in [10] was “Unstable” in each case. Moreover, the remaining at 2 h, 1000 µM in [9] was under 20%.

Take `Cc1c(C)c2c(c(C)c1O)CCC(C)(C(=O)O)O2` (configuration not stated) [TROLOX]: the “inhibition (INH)” value in series [4] was found to be 12.4%. In [6], this molecule displayed an Activity of 0.395 mmolequiv/L.
